From US9200319B2, “Nucleotides and nucleosides and methods for their use in DNA sequencing” (Lasergen, Inc., priority 2008, dated 2015) come the findings set out here.

A short description of assay [1]: UV-cleavage of incorporated nucleotide analogs with 365 nm light. As to conditions: 365 nm UV light, 50 mM NaN3; time at which half the incorporated analog is cleaved. Here is the method: Cleavage of the terminating substituted 2-nitrobenzyl group when analogs are incorporated into the primer strand with 365 nm UV light allows for the next cycle of incorporation to resume. Without being bound by theory, at least two factors were found typically influence UV-cleavage rates of incorporated nucleotide analogs: a) stereo-chemistry of the α-carbon substitution of the 2-nitrobenzyl group, and b) substitution on the benzyl ring. Incorporation on a matched template is performed as described above using 1 μM concentration to extend the primer strand. Ten identical tubes are used for each incorporation experiment, after which NaN3 is added to a final concentration of 50 mM. Extended primer reactions are exposed to 365 nm light for various time points using the UV deprotector device described by Wu et al. (2007, which is incorporated herein by reference) and analyzed using an AB model 377 DNA sequencer. The quantitative data are plotted linearly as product formation versus exposure time, and the time point at which half the nucleotide analog is cleaved is calculated, as a DT50 value. […] For example, based on these examples, the ds2 analogs show faster cleavage rates (e.g., lower DT50 values) compared with ds1 analogs. Furthermore, substitution of a methoxy group at the 4 position on the benzyl ring further increases the rate of UV-cleavage, albeit for ds2 analogs only (e.g., the DT50 value for 5p098-ds2 is […] versus that of 1.9 sec for 6p087-ds2). Based on the examples summarized in Table 3, substitution at the α-carbon of the 2-nitrobenzyl ring increases UV-cleavage in a stereospecific manner.

Assay [2] deals with T1, THERMINATOR™ DNA polymerase (Thermococcus sp., UniProt Q56366, A485L/D141A/E143A).
T1 construct: purchased New England Biolabs
T1 sequence (Q56366 whole entry D141A/E143A/A485L): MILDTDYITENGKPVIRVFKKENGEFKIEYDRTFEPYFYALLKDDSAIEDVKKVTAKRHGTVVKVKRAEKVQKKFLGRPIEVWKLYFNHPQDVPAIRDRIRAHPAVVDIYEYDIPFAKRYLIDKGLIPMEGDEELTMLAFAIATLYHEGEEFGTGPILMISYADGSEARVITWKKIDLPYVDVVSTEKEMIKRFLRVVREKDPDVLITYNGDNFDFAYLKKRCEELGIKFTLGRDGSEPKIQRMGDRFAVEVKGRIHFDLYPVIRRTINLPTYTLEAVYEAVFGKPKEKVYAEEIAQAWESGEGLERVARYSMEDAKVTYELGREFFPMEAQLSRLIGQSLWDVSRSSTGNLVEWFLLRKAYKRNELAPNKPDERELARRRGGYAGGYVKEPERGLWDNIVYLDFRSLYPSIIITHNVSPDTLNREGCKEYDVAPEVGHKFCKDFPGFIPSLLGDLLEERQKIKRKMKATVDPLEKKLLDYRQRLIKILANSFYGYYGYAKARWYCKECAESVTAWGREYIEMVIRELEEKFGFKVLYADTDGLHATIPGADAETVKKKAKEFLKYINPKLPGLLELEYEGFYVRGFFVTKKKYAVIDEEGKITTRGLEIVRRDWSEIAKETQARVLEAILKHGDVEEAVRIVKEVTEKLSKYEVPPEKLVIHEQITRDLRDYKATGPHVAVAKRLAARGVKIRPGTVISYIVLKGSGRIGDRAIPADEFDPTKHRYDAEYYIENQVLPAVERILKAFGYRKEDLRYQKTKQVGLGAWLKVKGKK
The assay is described as follows: biochemical. The arrangement: species or system Thermococcus species 9° N-7. Here is the method: (§1) Natural and modified nucleotides were tested for incorporation efficiency using the “polymerase end point assay” (Wu et al., 2007, which is incorporated herein by reference). This assay examines incorporation efficiency on matched and mismatched template bases. Incorporation efficiency is measured by determining the concentration at which the compound incorporates on half the primer-template complexes (IC50). Titrations of increasing compound concentration were performed to generate curves from which the IC50 can be determined.
(§2) The sequence of the template DNA is selected depending on which compound will be tested. For example, the first interrogation base after the primer in the template sequence is the complement base of the compound when measuring incorporation efficiency, and one of three mismatched bases when measuring mismatch discrimination properties.
(§3) To the annealed reaction, a DNA polymerase (e.g., THERMINATOR™ DNA polymerase, 0.25 units per reaction, New England Biolabs), 1× Thermopol Buffer, and a known concentration of either natural or modified nucleotide are added to each 10 μL reaction and incubated at 75° C. for 10 minutes, cooled on ice, and quenched with 10 μL of stop solution (98% formamide: 10 mM Na2EDTA, pH=8.0, 25 mg/ml Blue Dextran). Stopped reactions are heated to 75° C. for 30 seconds to denature the DNA, and then placed on ice. The extension products are analyzed on a 10% Long Ranger (Lonza) polyacrylamide gel using an ABI model 377 DNA sequencer. Additional details are provided in Example 1, below.
Polymerase Assays. Natural and modified nucleotides were tested for incorporation efficiency using the “polymerase end point assay” (Wu et al., 2007, which is incorporated herein by reference). This assay examines incorporation efficiency on matched and mismatched template bases. Incorporation efficiency is measured by determining the concentration at which the compound incorporates on half the primer-template complexes (IC50). Titrations of increasing compound concentration were performed to generate curves from which the IC50 can be determined.
The assay is performed by first annealing 5 nM of BODIPY-FL labeled primer with 40 nM template DNA in 1× Thermopol Buffer (20 mM Tris-HCl, pH 8.8; 10 mM (NH4)2SO4; 10 mM KCl; 2 mM MgSO4; 0.1% Triton X-100, New England BioLabs).
(§4) The temperature cycle to complete primer annealing is 80° C. for 30 seconds, 57° C. for 30 seconds, then cooling to 4° C. The sequence of the template DNA is selected depending on which compound will be tested. For example, the first interrogation base after the primer in the template sequence is the complement base of the compound when measuring incorporation efficiency, and one of three mismatched bases when measuring mismatch discrimination properties.
as §3, with “sequencer.” for “sequencer. Additional details are provided in Example 1, below.”

In assay [3] the target is T1, THERMINATOR™ DNA polymerase. Description: polymerase end point assay, mismatch discrimination (mismatched template bases). The assay is classed as biochemical, Thermococcus species 9° N-7. As to the method: as §1, §2
The mismatch/match ratios represent the ability of the polymerase to distinguish between correctly incorporating against a matched template base and a mismatch one. Discrimination is considered sufficient when the mismatch/match ratio is greater than or equal to 100 (two orders of magnitude). […] Both natural dGTP and C^7-(2-nitrobenzyloxy)methyl-2′-dGTP (5p107) show mismatch/match ratios ranging from 10 to 360, and 10 to 250, respectively, two of which are below the 100-fold threshold. […] A similar trend is observed for the C^7-hydroxymethyl-dATP analogs. For the compounds shown in Table 1, substitution at the α-carbon of the 2-nitrobenzyl group increases mismatch discrimination in a stereo-specific manner.
as §4
as §3, with “sequencer.” for “sequencer. Additional details are provided in Example 1, below.”

The target is the same in assay [4]. The assay is described as follows: termination assay, weighted sum analysis on homopolymer repeat template. As to conditions: 1.0 = complete termination after a single incorporation. The assay is classed as biochemical, Thermococcus species 9° N-7. Here is the method: A weighted sum of 1.0 represents complete termination after a single incorporation, while a value greater than 1.0 indicates incorporation beyond the +1 position (e.g. nucleotide read through). […] The assay is performed as described above for the polymerase end-point assay, except that the template used is a homopolymer repeat, thereby allowing for multiple incorporations of a given nucleotide compound.

Setting [5] is: IC50 for incorporation, concentration at which the compound incorporates on half the primer-template complexes, complement template base.
[6] abbreviates: Adj IC50 Conc (nM), adjusted IC50 used to set the concentrations of the termination assay.

Where “and” joins values, the source holds several entries; their conditions need not be identical. Identical values can stand only once. Like-named read-outs stand apart in the source and are kept apart here. A value given as a limit tells only on which side of the number the result lay.

In the case of `CC(C)C(OCc1cn([C@H]2C[C@H](O)[C@@H](COP(=O)(O)OP(=O)(O)OP(=O)(O)O)O2)c2ncnc(N)c12)c1ccccc1[N+](=O)[O-]` (single isomer, unassigned) [5p098-ds1, 7-[1-(2-nitrophenyl)-2-methyl-propyloxy]methyl-7-deaza-2′-deoxyadenosine-5′-triphosphate], the “DT50” value in assay [1] worked out at 7.5 ± 0.8 s. The compound further returned an IC50 in assay [2] (setting [5]) of 6.7 ± 0.8 nM.

Take `CC(C)C(OCc1cn([C@H]2C[C@H](O)[C@@H](COP(=O)(O)OP(=O)(O)OP(=O)(O)O)O2)c2ncnc(N)c12)c1ccccc1[N+](=O)[O-]` (single isomer, unassigned) [5p098-ds2, 7-[1-(2-nitrophenyl)-2-methyl-propyloxy]methyl-7-deaza-2′-deoxyadenosine-5′-triphosphate]: in assay [1], the “DT50” value was 3.3 s and 3.3 ± 0.2 s. The same compound returned an IC50 in assay [2] (setting [5]) of 5.7 ± 1.1 nM.

Turning to `CC(C)C(OCc1cn([C@H]2C[C@H](O)[C@@H](COP(=O)(O)OP(=O)(O)OP(=O)(O)O)O2)c2nc(N)[nH]c(=O)c12)c1ccccc1[N+](=O)[O-]` (single isomer, unassigned) [5p143-ds1, 7-[1-(2-nitrophenyl)-2-methyl-propyloxy]methyl-7-deaza-2′-deoxyguanosine-5′-triphosphate], the IC50 in assay [2] (setting [5]) turned out to be 1.2 ± 0.2 nM. Besides, the entries for the “Mismatch/match ratio (10^2)” value in assay [3] (template base "A"), in assay [3] (template base "G") and in assay [3] (template base "T") were >830 10^2, >21 10^2 and 5 10^2, respectively.

As to `CC(C)C(OCc1cn([C@H]2C[C@H](O)[C@@H](COP(=O)(O)OP(=O)(O)OP(=O)(O)O)O2)c2nc(N)[nH]c(=O)c12)c1ccccc1[N+](=O)[O-]` (single isomer, unassigned) [5p143-ds2, 7-[1-(2-nitrophenyl)-2-methyl-propyloxy]methyl-7-deaza-2′-deoxyguanosine-5′-triphosphate], the IC50 in assay [2] (setting [5]) turned out to be 1.3 ± 0.3 nM. Also, the “Mismatch/match ratio (10^2)” value in assay [3] (template base "A") was >770 10^2; in assay [3] (template base "G") it was >7.7 10^2; in assay [3] (template base "T"), 2.5 10^2.

Turning to `CC(C)C(OCc1cn([C@H]2C[C@H](O)[C@@H](COP(=O)(O)OP(=O)(O)OP(=O)(O)O)O2)c2ncnc(N)c12)c1c([N+](=O)[O-])cccc1[N+](=O)[O-]` (single isomer, unassigned) [6p057-ds1, 7-[1-(2,6-dinitrophenyl)-2-methyl-propyloxy]methyl-7-deaza-2′-deoxyadenosine-5′-triphosphate], the “DT50” value in assay [1] was 7.3 ± 1.2 s. In addition, in assay [2] (setting [5]), 5.2 ± 0.2 nM corresponded to half-maximal inhibition (IC50).

For `CC(C)C(OCc1cn([C@H]2C[C@H](O)[C@@H](COP(=O)(O)OP(=O)(O)OP(=O)(O)O)O2)c2ncnc(N)c12)c1c([N+](=O)[O-])cccc1[N+](=O)[O-]` (single isomer, unassigned) [6p057-ds2, 7-[1-(2,6-dinitrophenyl)-2-methyl-propyloxy]methyl-7-deaza-2′-deoxyadenosine-5′-triphosphate], in assay [1], the “DT50” value was found to be 4.8 ± 0.5 s. The compound also had an IC50 in assay [2] (setting [5]) of 5.8 ± 1.1 nM.

With `COc1ccc(C(OCc2cn([C@H]3C[C@H](O)[C@@H](COP(=O)(O)OP(=O)(O)OP(=O)(O)O)O3)c3ncnc(N)c23)C(C)C)c([N+](=O)[O-])c1` (single isomer, unassigned) [6p087-ds1, 7-[1-(4-methoxy-2-nitrophenyl)-2-methyl-propyloxy]methyl-7-deaza-2′-deoxyadenosine-5′-triphosphate], the “DT50” value in assay [1] amounted to 8.8 ± 0.6 s. The same compound registered an IC50 in assay [2] (setting [5]) of 15 ± 1 nM.

Regarding `Nc1nc2c(c(COCc3ccccc3[N+](=O)[O-])cn2[C@H]2C[C@H](O)[C@@H](COP(=O)(O)OP(=O)(O)OP(=O)(O)O)O2)c(=O)[nH]1` [5p107, 7-(2-nitrobenzyloxy)methyl-7-deaza-2′-deoxyguanosine-5′-triphosphate], half-maximal inhibition in assay [2] (setting [5]) (IC50) was put at 1.5 ± 0.3 nM. Moreover, the “Mismatch/match ratio (10^2)” value in assay [3] (template base "A") is on record as 2.5 10^2; in assay [3] (template base "G"), 0.4 10^2; in assay [3] (template base "T") it was 0.1 10^2.

For the compound `Cc1cccc(C)c1COCc1cn([C@H]2C[C@H](O)[C@@H](COP(=O)(O)OP(=O)(O)OP(=O)(O)O)O2)c(=O)[nH]c1=O` [6p015, 5-(2,6-dimethylbenzyloxy)methyl-2′-deoxyuridine-5′-triphosphate], the half-inhibitory concentration (IC50) in assay [2] (setting [6]) and in assay [2] (setting [5]) was 1.4 nM throughout. In addition, the figures for the “Average Weighted Sum ± SD” value in assay [4] (1x IC50), in assay [4] (5x IC50) and in assay [4] (25x IC50) were 0.56 ± 0.1, 1.5 ± 0.1 and 2.2 ± 0.1, respectively.

Turning to `CC(C)(C)c1ccccc1COCc1cn([C@H]2C[C@H](O)[C@@H](COP(=O)(O)OP(=O)(O)OP(=O)(O)O)O2)c(=O)[nH]c1=O` [6p024, 5-(2-tert-butylbenzyloxy)methyl-2′-deoxyuridine-5′-triphosphate], the half-inhibitory concentration (IC50) in assay [2] (setting [6]) and in assay [2] (setting [5]) was 0.7 nM in each case. Also, the “Average Weighted Sum ± SD” value is 0.44 ± 0.1 in assay [4] (1x IC50), 1.2 ± 0.1 in assay [4] (5x IC50) and 1.9 ± 0.1 in assay [4] (25x IC50).

In the case of `Nc1nc2c(ncn2[C@H]2C[C@H](O)[C@@H](COP(=O)(O)OP(=O)(O)OP(=O)(O)O)O2)c(=O)[nH]1` [dGTP, reference compound], the “Mismatch/match ratio (10^2)” value in assay [3] (template base "A") is listed as 3.6 10^2; in assay [3] (template base "G") it was 0.2 10^2; in assay [3] (template base "T"), 0.1 10^2.

Consider `Cc1cn([C@H]2C[C@H](O)[C@@H](COP(=O)(O)OP(=O)(O)OP(=O)(O)O)O2)c(=O)[nH]c1=O` [dTTP, reference compound], for which the 50% inhibitory concentration (IC50) in assay [2] (adjusted IC50 used to set the concentrations of the termination assay, read-out: Adj IC50 Conc) is 2.1 nM. Besides, the “Average Weighted Sum ± SD” value in assay [4] (1x IC50) was found to be 0.68; in assay [4] (5x IC50), 3.0; in assay [4] (25x IC50), 12.2.

A word on the IC50: it is the point on the concentration scale where inhibition reaches its midpoint.
